Results: patent US20260007720A1, “TISSUE REGENERATIVE MULTI-DRUG COCKTAIL AND APPARATUS FOR DELIVERY THEREOF” (priority 2022, published 2026)

System: amputated P2 bone
Experiment: Multiple treatments targeting chondrogenesis after P2 amputation
Format: in vivo, adult CD-1 mice
Settings: 98 days after amputation
Experimental: Amputation Surgery and Device Attachment and Removal—All experiments were performed under the approval of Tuft's IACUC. All animals were housed in 12-hour light and dark cycles and fed using the recommended feed. Female CD-1 (Charles River Laboratories, Wilmington, MA) and FVB/NJ mice (Jackson Laboratories, Bar Harbor, ME) from 8 to 10 weeks of age were used in the study. Animals were anesthetized with isoflurane administered at 2 to 5% air composition. For single treatment (FIG. 20A), P2 amputation in hindlimb digit 3 was made using a scalpel under a dissection microscope. Immediately after P2 amputation, the dragonskin insert containing silk hydrogel with or without bioactive molecules was then attached to the amputated digit using Skin Tite™ Bioadhesive (Smooth-On, PA). Prior to hydrogel loading, all materials and tools used in the experiment (e.g. surgical tools and device components) were autoclaved to ensure sterility. Devices were attached for various time periods and the amputation digits were then allowed to heal after device removal. For the approach to target active chondrogenesis (FIG. 20B), hindlimb digit 3 was amputated at P2 level and allowed to heal conservatively for 7 to 9 days. […]

insulin-like growth factor-1 [IGF-1] was tested, and the P2 bone elongation was “promote P2 bone elongation”.
